In article PMC9405123, “Design, Synthesis and Mechanistic Studies of Novel Isatin-Pyrazole Hydrazone Conjugates as Selective and Potent Bacterial MetAP Inhibitors” (Antibiotics, 2022):
Values after ≈ are worked out from the molar mass of the structure shown.

How the values were obtained:
P. aeruginosa [1] = assay: Growth kinetics; type: cell-based, Pseudomonas aeruginosa
Experimental: (§1) Bacterial strains were tested as mentioned in Habib et al.. Briefly, ½ MIC, MIC and 2MIC values of PS9 were taken to assess the growth of bacterial strains whereas untreated cells and media were taken as positive and negative control, respectively.

E. coli [2] = assay: Growth kinetics; type: cell-based, Escherichia coli
Experimental: as §1

MtMetAP1c = biological target: T1, MtMetAP1c (Mycobacterium tuberculosis, UniProt P9WK19); assay: MetAP enzyme inhibition, Morrison Ki (Met-AMC fluorescence); type: biochemical, M. tuberculosis; settings: Morrison Ki method
T1 construct: made in house
Method in brief: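 Purified recombinant MtMetAP1c (1 µM) in 50 mM HEPES pH 8.0, 150 mM NaCl, CoCl2 at three molar equivalents of enzyme; reaction started with 50 μM Met-AMC, released AMC followed continuously by fluorescence (ex 380/em 460 nm). Ki by Morrison method from three substrate and ten inhibitor concentrations, in triplicate.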

E. coli [3] = assay: Minimum inhibitory concentration (broth dilution); type: cell-based, Escherichia coli; settings: Escherichia coli, alone, read-out: MIC
LG33 = assay: MIC on environmental MDR isolate (microdilution); settings: Enterobacter
JST78 = assay: MIC on environmental MDR isolate (microdilution); settings: Escherichia coli
HK91 [4] = assay: MIC on environmental MDR isolate (microdilution); settings: Ralstonia
B. subtilis = assay: Combination study with AMP or CIP
K. pneumoniae = assay: Combination study with AMP or CIP
HK91 [5] = assay: MBC on environmental MDR isolate; settings: Ralstonia
E. faecalis [6] = assay: Time-kill curve assay; type: cell-based, Enterococcus faecalis
Experimental: A time–kill curve study was performed against bacterial strains (E. coli, E. faecalis, K. pneumonia and P. aeruginosa) to determine whether compound PS9 is bactericidal or bacteriostatic. MIC, 2MIC and 4MIC concentrations were employed for the time–kill assay as explained by Ali et al.. Untreated bacterial cells were used as a control. 100 µL aliquot was taken from each flask at regular intervals. An aliquot was further diluted in phosphate buffer saline solution and from each concentration 50 µL aliquot was inoculated on a nutrient agar plate and spread. Colonies were counted after the incubation of the plate at 37 °C. For each strain, the average (mean) colony count data (log10 CFU/mL) was plotted against time.

JST68 = assay: MBC on environmental MDR isolate; settings: Escherichia coli
LG71 = assay: MIC on environmental MDR isolate (microdilution); settings: isolate LG71 Enterobacter cloacae
S. aureus = assay: Minimum bactericidal concentration; type: cell-based, Staphylococcus aureus
E. faecalis [7] = assay: Minimum bactericidal concentration; type: cell-based, Enterococcus faecalis
JST61 = assay: MIC on environmental MDR isolate (microdilution); settings: Pantoea agglomerans
E. coli [8] = assay: Minimum bactericidal concentration; type: cell-based, Escherichia coli
Cytotoxicity assay (MTT) = type: cell-based; settings: human, HEK293 cells, read-out: viable HEK293 cells
Experimental: PS9 was tested for cytotoxicity against human embryonic kidney (HEK293) cells using a colorimetric MTT assay. HEK293 cells were grown at 37 °C in a humidified environment of 5% CO2 in DMEM media enriched with 10% FBS and 1% penicillin, streptomycin solution. HEK293 cells (1 × 10^4) were seeded in triplicate and incubated overnight in a CO2 incubator. After the treatment (5–200 μM) with PS9, the cells were kept for 48 h at 37 °C. Freshly prepared 5 mg/mL MTT was supplied to the samples and kept on incubation at 37 °C for 4–5 h. DMSO was added to solubilize the formazan crystals. A microplate reader (Bio-Rad, Hercules, CA, USA) was used for taking absorbance at 570 nm and all the experiments were done in triplicate.

HK32 = assay: MBC on environmental MDR isolate; settings: Enterobacter cloacae
P. aeruginosa [9] = assay: Minimum bactericidal concentration; type: cell-based, Pseudomonas aeruginosa; settings: Pseudomonas aeruginosa
SH34 = assay: MIC on environmental MDR isolate (microdilution); settings: Serratia marcescens

T1 sequence (P9WK19 whole entry): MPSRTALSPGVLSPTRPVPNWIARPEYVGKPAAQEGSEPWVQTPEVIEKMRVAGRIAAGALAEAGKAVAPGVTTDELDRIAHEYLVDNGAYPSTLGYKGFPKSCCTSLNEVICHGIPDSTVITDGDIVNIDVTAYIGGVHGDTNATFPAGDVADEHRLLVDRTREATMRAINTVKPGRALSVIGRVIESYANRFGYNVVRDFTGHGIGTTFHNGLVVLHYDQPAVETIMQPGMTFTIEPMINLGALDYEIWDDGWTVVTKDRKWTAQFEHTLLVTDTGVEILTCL

For `O=C1Nc2ccc(F)cc2/C1=N\NC(=O)c1cc(-c2cccc(Br)c2)n[nH]1` [PS9, (E)-3-(3-Bromophenyl)-N′-(5-Fluoro-2-Oxoindolin-3-Ylidene)-1H-Pyrazole-5-Carbohydrazide], the growth (P. aeruginosa [1]; 2MIC and MIC) was “no growth observed up to 24 h”, the “time after inoculation at which log phase was observed” value (P. aeruginosa [1]; ½ MIC) was 8 h and the growth (E. coli [2]; 2MIC and MIC) was “no growth observed up to 24 h”. The “time after inoculation at which log phase was observed” value (E. coli [2]; ½ MIC) was 6 h, the Ki (MtMetAP1c) was 310 nM and the MIC (E. coli [3]) was 16 µg/mL (≈ 37.4 µM). It also gave an MIC (LG33) of 1000 µg/mL (≈ 2340 µM), an MIC (JST78) of 1000 µg/mL (≈ 2340 µM) and an MIC (HK91 [4]) of 2 µg/mL (≈ 4.67 µM). For the same molecule, the “MIC in Combination” value (B. subtilis; combination PS9 + AMP) was 4 µg/mL, the “MIC in Combination” value (B. subtilis; combination PS9 + CIP) was 8 µg/mL and the FICI (B. subtilis; combination with AMP) was 0.62. For the same molecule, the “Mode of Interaction” value (B. subtilis; combination with AMP) was “Indifferent (in between 0.5 and 4)”, the FICI (B. subtilis; combination with CIP) was 4.25 and the “MIC in Combination” value (K. pneumoniae; combination PS9 + AMP) was 2 µg/mL. For the same molecule, the “MIC in Combination” value (K. pneumoniae; combination PS9 + CIP) was 4 µg/mL, the FICI (K. pneumoniae; combination with AMP) was 0.50 and the FICI (K. pneumoniae; combination with CIP) was 0.50. The MBC (HK91 [5]) was 16 µg/mL (≈ 37.4 µM), the “killing (log10 CFU/mL with time)” value (E. faecalis [6]; 4MIC, after 16 h) was “significant eradication” and the “killing (log10 CFU/mL with time)” value (E. faecalis [6]; MIC, till 16 h) was “no 100% eradication”. For the same molecule, the MBC (JST68) was 256 µg/mL (≈ 598 µM), the MIC (LG71; Enterobacter cloacae) was 1020 µg/mL (≈ 2390 µM) and the MIC (LG71) was >1024 µg/mL. The “MBC/MIC Ratio (R*)” value (S. aureus) was 8, the MBC (S. aureus; Staphylococcus aureus) was 256 µg/mL (≈ 598 µM) and the “MBC/MIC Ratio (R*)” value (E. faecalis [7]) was 4. The MBC (E. faecalis [7]; Enterococcus faecalis) was 32 µg/mL (≈ 74.7 µM), the MIC (JST61) was 1000 µg/mL (≈ 2340 µM) and the “MBC/MIC Ratio (R*)” value (E. coli [8]) was 4. For the same molecule, the MBC (E. coli [8]; Escherichia coli) was 64 µg/mL (≈ 149 µM), the viability at 48 h, 100 µg/mL (Cytotoxicity assay (MTT); 100 µg/mL) was > 90% and the viability at 48 h (Cytotoxicity assay (MTT); up to 200 µg/mL) was > 75%. The MBC (HK32) was 64 µg/mL (≈ 149 µM), the MBC (P. aeruginosa [9]) was 16 µg/mL (≈ 37.4 µM) and the MIC (SH34) was > 1020 µg/mL.
